System: MLKL phosphorylation in HT29-L23 human colorectal adenocarcinoma cells
Assay: MLKL Phosphorylation High-Content Assay
Assay type: cell-based
Conditions: Homo sapiens, x marks IC50 class 20-200 nM, read-out: pMLKL cell activity 20-200 nM
Experimental: MLKL Phosphorylation High-Content Assay
Following six hours incubation at 37° C. […] MLKL phosporylation was detected using anti-MLKL (phospho S358) antibody (Abcam #ab187091) (1:1000 dilution in Blocking Buffer [PBS supplemented with 0.1% BSA]) with overnight incubation at 4° C. […] Following another three cycles of washes in PBS, the microplates were sealed, and cellular images were acquired in the Cellomics ArrayScan VTI high-content imager equipped with an X1 camera. […] The image sets were analyzed using the Compartmental Analysis Bioapplication software (Cellomics). The level of MLKL phosphorylation was quantified as MEAN CircRingAvgIntenRatio. […] The data were fitted using the 4-parameter logistic equation to calculate the IC50 and Ymax values.

Row | Compound | IC50 [nM]
1 | COc1ncc(-c2ccn3nc(N)nc3c2)cc1C(=O)NC(C)CCc1ccccc1 (centres unmarked) [Example 101, 5-{2-amino-[1,2,4]triazolo[1,5-a]pyridin-7-yl}-2-methoxy-N-(4-phenylbutan-2-yl)pyridine-3-carboxamide] | 20 to 200
2 | Nc1nc2cc(-c3cnc(Cl)c(C(=O)NCc4cc(C(F)(F)F)ccc4F)c3)ccn2n1 [Example 170, 5-{2-amino-[1,2,4]triazolo[1,5-a]pyridin-7-y1}-2-chloro-N-{[2-fluoro-5-(trifluoromethyl)phenyl]methyl}pyridine-3-carboxamide] | 20 to 200
3 | Cc1nc(C)c(-c2ccn3nc(N)nc3c2)cc1C(=O)NCc1cc(F)cc(F)c1O[C@H]1CCOC1 [Example 295, (S)-5-(2-amino-[1,2,4]triazolo[1,5-a]pyridin-7-yl)-N-(3,5-difluoro-2-((tetrahydrofuran-3-yl)oxy)benzyl)-2,6-dimethylnicotinamide] | 20 to 200
4 | Cc1ncc(-c2ccn3nc(N)nc3c2)cc1C(=O)Nc1cn(Cc2ccccc2)cn1 [Example 319, 5-(2-amino-[1,2,4]triazolo[1,5-a]pyridin-7-yl)-N-(1-benzyl-1H-imidazol-4-yl)-2-methylnicotinamide] | 20 to 200

Same assay, conditions: Homo sapiens, x marks IC50 class <20 nM, read-out: pMLKL cell activity <20 nM

Row | Compound | IC50 [nM]
5 | Nc1nc2cc(-c3cnc(Cl)c(C(=O)Nc4cnn(Cc5ccccc5)c4)c3)ccn2n1 [Example 83, 5-{2-Amino-[1,2,4]triazolo[1,5-a]pyridin-7-yl}-N-(1-benzyl-1H-pyrazol-4-yl)-2-chloropyridine-3-carboxamide] | < 20
6 | COc1ncc(-c2ccn3nc(N)nc3c2)cc1C(=O)NCCC(C)c1ccccc1 (centres unmarked) [Example 85, 5-{2-Amino-[1,2,4]triazolo[1,5-a]pyridin-7-yl}-2-methoxy-N-(3-phenylbutyl)pyridine-3-carboxamide] | < 20
7 | COc1ncc(-c2ccn3nc(N)nc3c2)cc1C(=O)NCC(C)Cc1ccccc1 (centres unmarked) [Example 113, 5-{2-amino-[1,2,4]triazolo[1,5-a]pyridin-7-yl}-2-methoxy-N-(2-methyl-3-phenylpropyl)pyridine-3-carboxamide] | < 20

Same assay, conditions: Homo sapiens, x marks IC50 class >200 nM, read-out: pMLKL cell activity >200 nM

Row | Compound | IC50 [nM]
8 | COc1ncc(-c2ccn3nc(N)nc3c2)cc1C(=O)NCCC(O)c1ccc(F)cc1 (single isomer, unassigned) [Example 71-2, 5-(2-Amino-[1,2,4]triazolo[1,5-a]pyridin-7-yl)-N-(3-(4-fluorophenyl)-3-hydroxypropyl)-2-methoxynicotinamide] | > 200
9 | COc1ncc(-c2ccn3nc(N)nc3c2)cc1C(=O)NC[C@H]1C[C@@H]1c1ccc(F)cc1 [Example 112, 5-{2-amino-[1,2,4]triazolo[1,5-a]pyridin-7-yl}-N-{[(1S,2S)-2-(4-fluorophenyl)cyclopropyl]methyl}-2-methoxypyridine-3-carboxamide] | > 200

Target: T1, His-GST-TVMV-hRIPK1(1-324) (Homo sapiens, UniProt Q13546)
T1 construct: The coding region of human RIPK1(1-324) flanked by NdeI site at 5′ end; made in house; host or cells: Spodoptera frugiperda (Sf9) insect cells, baculovirus
T1 sequence (Q13546 1-324): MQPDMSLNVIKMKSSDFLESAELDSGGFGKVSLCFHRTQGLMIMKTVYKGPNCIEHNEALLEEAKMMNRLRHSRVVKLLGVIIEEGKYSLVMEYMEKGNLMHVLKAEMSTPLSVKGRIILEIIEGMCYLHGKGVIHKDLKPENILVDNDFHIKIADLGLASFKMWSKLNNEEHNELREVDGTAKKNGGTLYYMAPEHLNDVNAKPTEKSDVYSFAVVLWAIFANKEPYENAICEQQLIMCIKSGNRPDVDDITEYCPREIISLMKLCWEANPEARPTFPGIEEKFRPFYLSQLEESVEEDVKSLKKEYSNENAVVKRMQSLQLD
Assay: RIPK1 HTRF Binding Assay
Conditions: x marks IC50 class 20-200 nM; read-out: RIPK1 HTRF binding 20-200 nM
Experimental: The plate was incubated at rt for 1 h.
Cloning and Baculovirus Expression of RIPK1 Construct
Baculovirus was generated for the construct using the Bac-to-Bac baculovirus expression system (Invitrogen) according to the manufacturer's protocol. Briefly, recombinant bacmid was isolated from transformed DH10Bac E. coli competent cells (Invitrogen) and used to transfect Spodoptera frugiperda (Sf9) insect cells (Invitrogen). Baculovirus was harvested 72 hours post transfection and a virus stock was prepared by infecting fresh Sf9 cells at a 1/1000 (v/v) ratio for 66 hours.
The production was carried out either at a 10 L scale in a 22 L cellbag (GE Healthcare Bioscience, Pittsburgh, Pa.) or at a 20 L scale in a 50 L cellbag using WAVE-Bioreactor System 20/50 (GE Healthcare Bioscience). The infected cells were harvested by centrifugation at 2000 rpm for 20 min at 4° C. in a SORVALL® RC12BP centrifuge. The cell pellets was stored at −70° C. before protein was purified.
RIPK1 containing cell paste was resuspended in 50 mM Tris pH 7.5, 150 mM NaCl, 10 mM imidazole, 5% glycerol, 5 mM MgSO4, 1 mM TCEP, 25 U/ml Benzonase, and Complete Protease Inhibitor tablets (1/50 ml, Roche Diagnostics, Indianapolis, Ind.). […] The suspension was clarified by centrifugation at 136,000×g for 40 min, at 4° C. The lysate was decanted from the pellet and passed through a 5 ml NiNTA Superflow cartridge (Qiagen, Valencia, Calif.) using an AKTA Pure (GE Healthcare). Column was eluted with 10 CV linear gradient into 50 mM Tris 7.5, 150 mM NaCl, 500 mM imidazole, 5% glycerol, 1 mM TCEP. Peak fractions were pooled and loaded directly onto 5 ml GSTrap 4B column (GE Healthcare). Column was washed with 50 mM Tris 7.0, 150 mM NaCl, 5% glycerol, 1 mM DTT and eluted in 10 CV linear gradient into 50 mM Tris 8.0, 150 mM NaCl, 20 mM reduced glutathione, 5% glycerol, 1 mM DTT. Fractions identified by SDS-PAGE as containing RIPK1 were pooled and concentrated using 30 kDa MWCO spin concentrators (Amicon Ultra-15, Millipore, Billerica, Mass.) and loaded onto a HiLoad 26/600 Superdex 200 column (GE Healthcare) equilibrated in 25 mM Tris 7.5, 150 mM NaCl, 2 mM TCEP, 5% glycerol.
Protein was aliquoted and stored at −80° C.

Row | Compound | IC50 [nM]
10 | COc1ncc(-c2ccn3nc(N)nc3c2)cc1C(=O)NCC[C@H](O)c1ccc(Cl)cc1 [Example 157, 5-{2-amino-[1,2,4]triazolo[1,5-a]pyridin-7-yl}-N-[(3S)-3-(4-chlorophenyl)-3-hydroxypropyl]-2-methoxypyridine-3-carboxamide] | 20 to 200
11 | Cc1nc(C)c(-c2ccn3nc(N)nc3c2)cc1C(=O)NCC[C@@H](O)c1ccc(Cl)cc1 [Example 178, 5-{2-amino-[1,2,4]triazolo[1,5-a]pyridin-7-yl}-N-[(3R)-3-(4-chlorophenyl)-3-hydroxypropyl]-2,6-dimethylpyridine-3-carboxamide] | 20 to 200
12 | COc1nc(C)c(-c2ccn3nc(N)nc3c2)cc1C(=O)NCC[C@H](O)c1ccc(Cl)cc1 [Example 193, 5-{2-amino-[1,2,4]triazolo[1,5-a]pyridin-7-yl}-N-[(3S)-3-(4-chlorophenyl)-3-hydroxypropyl]-2-methoxy-6-methylpyridine-3-carboxamide] | 20 to 200

Same assay, conditions: x marks IC50 class <20 nM; read-out: RIPK1 HTRF binding <20 nM

Row | Compound | IC50 [nM]
13 | 5-(2-amino-[1,2,4]triazolo[1,5-a]pyridin-7-yl)-2-methoxy-N-(2-(pyrrolidine-1-carbonyl)benzyl)nicotinamide [Example 379] | < 20
14 | 5-(2-amino-[1,2,4]triazolo[1,5-a]pyridin-7-yl)-N-(3,5-difluoro-2-isobutoxybenzyl)-2-methoxynicotinamide [Example 341] | < 20
15 | COc1ncc(-c2ccn3nc(N)nc3c2)cc1C(=O)NC(C)c1cc(OC(F)(F)F)ccc1F (single isomer, unassigned) [Example 89-2, 5-{2-amino-[1,2,4]triazolo[1,5-a]pyridin-7-yl}-N-{1-[2-fluoro-5-(trifluoromethoxy)phenyl]ethyl}-2-methoxypyridine-3-carboxamide] | < 20
16 | [2H]C([2H])([2H])Oc1nc(C)c(-c2ccn3nc(N)nc3c2)cc1C(=O)NC(C)c1cc(OC(F)(F)F)ccc1F (single isomer, unassigned) [Example 97-2, 5-{2-amino-[1,2,4]triazolo[1,5-a]pyridin-7-yl}-N-{1-[2-fluoro-5-(trifluoromethoxy)phenyl]ethyl}-2-(deutero)methoxy-6-methylpyridine-3-carboxamide] | < 20
17 | Cc1ncc(-c2ccn3nc(N)nc3c2)cc1C(=O)NC(C)c1cc(C(F)(F)F)ccc1F (single isomer, unassigned) [Example 99-2, 5-{2-amino-[1,2,4]triazolo[1,5-a]pyridin-7-yl}-N-{1-[2-fluoro-5-(trifluoromethyl)phenyl]ethyl}-2-methylpyridine-3-carboxamide] | < 20
18 | Cc1ncc(-c2ccn3nc(N)nc3c2)cc1C(=O)NCCC(C)c1ccccc1 (centres unmarked) [Example 82, 5-{2-Amino-[1,2,4]triazolo[1,5-a]pyridin-7-yl}-2-methyl-N-(3-phenylbutyl)pyridine-3-carboxamide] | < 20
19 | Cc1nc(C)c(-c2ccn3nc(N)nc3c2)cc1C(=O)NCC[C@H](O)c1ccc(Cl)cc1 [Example 179, 5-{2-amino-[1,2,4]triazolo[1,5-a]pyridin-7-yl}-N-[(3S)-3-(4-chlorophenyl)-3-hydroxypropyl]-2,6-dimethylpyridine-3-carboxamide] | < 20
20 | (R)-2-(2-amino-[1,2,4]triazolo[1,5-a]pyridin-7-yl)-N-(1-(2-fluoro-5-(trifluoromethyl)phenyl)ethyl)-5-methylisonicotinamide [Example 396] | < 20
21 | (R)-5-(2-amino-[1,2,4]triazolo[1,5-a]pyridin-7-yl)-N-(1-(2-fluoro-5-(trifluoromethoxy)phenyl)ethyl-2,2,2-d3)-2-methoxynicotinamide [Example 345] | < 20
22 | (S)-2-(2-amino-[1,2,4]triazolo[1,5-a]pyridin-7-yl)-N-(3-(4-chlorophenyl)-3-hydroxypropyl)-5-methylisonicotinamide [Example 397] | < 20

Same assay, conditions: x marks IC50 class >200 nM; read-out: RIPK1 HTRF binding >200 nM

Row | Compound | IC50 [nM]
23 | COc1ncc(-c2ccn3nc(N)nc3c2)cc1C(=O)NCCC(O)c1ccc(Cl)cn1 (centres unmarked) [Example 75, 5-{2-Amino-[1,2,4]triazolo[1,5-a]pyridin-7-yl}-N-[3-(5-chloropyridin-2-yl)-3-hydroxypropyl]-2-methoxypyridine-3-carboxamide] | > 200

From patent US10913738B2 (BRISTOL-MYERS SQUIBB COMPANY, priority 2017, dated 2021)
